Reference: ChEMBL document CHEMBL1153024, “Antibacterial diterpenes from Plectranthus ernstii” (2009)
In brackets after ≈: the same amount, converted by molar mass. Activity calls are given as the source filed them. The rule behind the calls is not given here.

What was measured:
[1] = system: Staphylococcus aureus; assay: Antibacterial activity against Staphylococcus aureus 1199B overexpressing NorA at 128 ug/ml after 24 hrs; type: functional, organism-based
[2] = system: Staphylococcus aureus; assay: Antibacterial activity against Staphylococcus aureus XU-212 overexpressing TetK, mecA at 128 ug/ml after 24 hrs; type: functional, organism-based
[3] = system: Mycolicibacterium smegmatis; assay: Antibacterial activity against Mycobacterium smegmatis after 72 hrs; type: functional
[4] = system: Staphylococcus aureus; assay: Antibacterial activity against Staphylococcus aureus EMRSA-15 at 128 ug/ml after 24 hrs; type: functional, organism-based
[5] = system: Staphylococcus aureus; assay: Antibacterial activity against Staphylococcus aureus ATCC 25923 at 128 ug/ml after 24 hrs; type: functional, organism-based
[6] = system: Staphylococcus aureus; assay: Antibacterial activity against Staphylococcus aureus RN4220 overexpressing MsrA at 128 ug/ml after 24 hrs; type: functional, organism-based
[7] = system: Mycolicibacterium fortuitum; assay: Antibacterial activity against Mycobacterium fortuitum after 72 hrs; type: functional
[8] = system: Mycolicibacterium phlei; assay: Antibacterial activity against Mycobacterium phlei after 72 hrs; type: functional
[9] = system: Staphylococcus aureus; assay: Antibacterial activity against Staphylococcus aureus XU-212 overexpressing TetK, mecA after 24 hrs; type: functional; details: XU-212, 24 h
[10] = system: Staphylococcus aureus; assay: Antibacterial activity against Staphylococcus aureus 1199B overexpressing NorA after 24 hrs; type: functional
[11] = system: Staphylococcus aureus; assay: Antibacterial activity against Staphylococcus aureus ATCC 25923 after 24 hrs; type: functional; details: ATCC 25923, 24 h
[12] = system: Staphylococcus aureus; assay: Antibacterial activity against Staphylococcus aureus EMRSA-15 after 24 hrs; type: functional; details: EMRSA-15, 24 h
[13] = system: Staphylococcus aureus; assay: Antibacterial activity against Staphylococcus aureus RN4220 overexpressing MsrA after 24 hrs; type: functional; details: RN4220, 24 h

Row | SMILES | MIC [1] | MIC [2] | MIC [3] [µg/mL] | MIC [4] | MIC [5] | MIC [6] | MIC [7] [µg/mL] | MIC [8] [µg/mL] | MIC [9] [µg/mL] | MIC [10] [µg/mL] | MIC [11] [µg/mL] | MIC [12] [µg/mL] | MIC [13] [µg/mL]
1 | C=C[C@@]1(C)C[C@H](O)[C@@H]2[C@@]3(C)[C@H](O)CCC(C)(C)[C@@H]3CC[C@@]2(C)O1 | inactive | inactive | 128 (≈ 397 µM) | inactive | inactive | inactive | 128 (≈ 397 µM) | 128 (≈ 397 µM) |  |  |  |  | 
2 | CC1(C)CCC[C@]2(C)[C@H]3CC[C@](C)(C4CO4)C=C3C(=O)C[C@@H]12 (relative stereo) | inactive | inactive | 128 (≈ 423 µM) | inactive | inactive | inactive | 128 (≈ 423 µM) | 64 (≈ 212 µM) |  |  |  |  | 
3 | CC1(C)CCC[C@]2(C)[C@H]3CC[C@](C)(C4CO4)C=C3[C@H](O)C[C@@H]12 (relative stereo) |  |  | 16 (≈ 52.5 µM) |  |  |  | 16 (≈ 52.5 µM) | 8 (≈ 26.3 µM) | 32 (≈ 105 µM) | 32 (≈ 105 µM) | 32 (≈ 105 µM) | 32 (≈ 105 µM) | 32 (≈ 105 µM)
4 | CC[C@H]1OC(=O)[C@H](C)[C@@H](O[C@H]2C[C@@](C)(OC)[C@@H](O)[C@H](C)O2)[C@H](C)[C@@H](O[C@@H]2O[C@H](C)C[C@H](N(C)C)[C@H]2O)[C@](C)(O)C[C@@H](C)C(=O)[C@H](C)[C@@H](O)[C@]1(C)O [ERYTHROMYCIN] |  |  |  |  |  |  |  |  |  |  |  |  | 128 (≈ 174 µM)
5 | CC[C@@H](CO)NCCN[C@@H](CC)CO [ETHAMBUTOL] |  |  | 0.5 (≈ 2.45 µM) |  |  |  | 4 (≈ 19.6 µM) | 2 (≈ 9.79 µM) |  |  |  |  | 
6 | CCn1cc(C(=O)O)c(=O)c2cc(F)c(N3CCNCC3)cc21 [NORFLOXACIN] |  |  |  |  |  |  |  |  |  | 32 (≈ 100 µM) | 0.5 (≈ 1.57 µM) | 2 (≈ 6.26 µM) | 
7 | CN(C)[C@@H]1C(O)=C(C(N)=O)C(=O)[C@@]2(O)C(O)=C3C(=O)c4c(O)cccc4[C@@](C)(O)[C@H]3C[C@@H]12 [TETRACYCLINE] |  |  |  |  |  |  |  |  | 128 (≈ 288 µM) |  |  |  | 
